Experimental data as given in US7595401B2, “Therapeutic compounds and their use in cancer” (Myriad Pharmaceuticals, Inc., priority 2006, dated 2009).

Tested on: Luciferase refolding
Test: Luciferase refolding assay
Assay type: biochemical
Design: key: *Compound is active in Luciferase refolding assay
Settings: compound fluorescent in FP binding assay

SMILES | active in Luciferase refolding assay (asterisk footnote)
Nc1ncn(CCC2(F)C(F)(F)C(F)(F)C(F)(F)C(F)(F)C2(F)F)c2nc(Sc3cc4c(cc3Br)OCO4)nc1-2 [Example 377, 8-[(6-Bromo-1,3-benzodioxol-5-yl)thio]-3-[2-(undecafluorocyclohexyl)ethyl]-3H-purin-6-amine] | *Fluorescent
COc1ccc(OC)c(Sc2nc3c(N)ncnc3n2CCC(NC(=O)OC(C)(C)C)C2CC2)c1 (stereo not drawn) [Example 664, tert-Butyl(3-{6-amino-8-[(2,5-dimethoxyphenyl)thio]-9H-purin-9-yl}-1-cyclopropylpropyl)carbamate] | *Fluorescent
CC(C)NC(=O)NC(CCn1c(Sc2cc3c(cc2Br)OCO3)nc2c(N)ncnc21)C1CC1 (stereo not drawn) [Example 678, N-(3-{6-Amino-8-[(6-bromo-1,3-benzodioxol-5-yl)thio]-9H-purin-9-yl}-1-cyclopropylpropyl)-N′-isopropylurea] | *Fluorescent
